Test results: article PMC10215404, “Effect of Indole-Containing Pyrazino[2,1-b]quinazoline-3,6-diones in the Virulence of Resistant Bacteria” (Antibiotics, 2023)
Converted amounts (≈) assume the structure as drawn. “And” between values parts separate entries of the source, which are not always exact repeats. Identical values can stand only once.

How the values were obtained:
[1] = test system: NIH/3T3 mouse fibroblast cell line; test: Cytotoxicity assay (MTT); type: cell-based; conditions: NIH3T3, 24 h
Method: The effects of increasing concentrations of compounds on cell growth were tested in 96-well flat-bottomed microtiter plates. The compounds were diluted in a volume of 100 μL of medium. Afterwards, 1 × 10^4 cells in 100 μL of medium were added to each well, with the exception of the medium control. In the case of NIH/3T3 cells, the compounds were added after seeding the cells at 37 °C overnight. The plates were incubated at 37 °C for 24 h; after the incubation period, 20 μL of MTT solution (from a 5 mg/mL stock) was added to each well. After 4 h of incubation at 37 °C, 100 μL of SDS solution (10% in 0.01 M HCl) was added to each well and the plates were incubated at 37 °C overnight. Cell growth was determined by measuring the optical density (OD) at 540 nm (ref. 630 nm) with a Multiscan EX ELISA reader. Inhibition of cell growth was determined as IC50 values, defined as the inhibitory dose that reduced the growth of the cells exposed to the tested compounds by 50%. IC50 values and the SD of triplicate experiments were calculated by using GraphPad Prism software version 5.00 for Windows with a nonlinear regression curve fit (GraphPad Software, San Diego, CA, USA; www.graphpad.com, accessed on 14 July 2022). Doxorubicin (from a 2 mg/mL stock solution, Teva Pharmaceuticals) was used as the positive control.

E. coli AG100A = test: Real-time ethidium bromide accumulation assay (efflux pump inhibition); conditions: minute 60
E. coli AG100 = test: as above; conditions: minute 60
Enterococcus faecalis = conditions: E. faecalis B3/101; cited from earlier work
E. faecalis B3/101 = test: Antibiotic potentiation with vancomycin, broth microdilution; conditions: Enterococcus faecalis, B3/101, read-out: MIC of vancomycin alone obtained in this study
[2] = test system: S. aureus, including the MRSA strains; test: MIC, summary over S. aureus strains; conditions: Staphylococcus aureus
Method: (§4) The MIC of each compound was determined by the broth microdilution method, in accordance with the recommendations of the CLSI [48]. Two-fold serial dilutions of the compounds were prepared in Mueller–Hinton Broth 2 (MHB2–Sigma-Aldrich, St. Louis, MO, USA). Sterility and growth controls were included in each assay. Quality controls were performed with erythromycin for the Gram-positive bacterial strains and with colistin for the Gram-negative bacterial strains. Purity check and colony counts of the inoculum suspensions were also performed to ensure that the final inoculum density closely approximated 5 × 10^5 CFU/mL. The MIC was determined as the lowest concentration at which no visible growth was observed. […] The reported MIC results arose from at least three independent experiments.

[3] = test system: E. faecalis including VRE; test: MIC, summary over E. faecalis strains; conditions: Enterococcus faecalis
Method: as §4

[4] = test system: E. coli AG100, E. coli AG100A, and MRSA 272123; test: Biofilm formation, crystal violet method (overall statement); type: cell-based
Method: (§1) The antibiofilm effect of the tested compounds was evaluated using the crystal violet method on E. coli AG100, E. coli AG100A, and MRSA 272123. […] CCCP was used as a positive control.
(§2) The biofilm-forming ability of the S. aureus strains was studied in 96-well microtiter plates using TSB broth in the presence of compounds. The biofilm-forming ability of the E. coli strains was studied in 96-well microtiter plates using LB broth in the presence of the compounds. […] The final volume was 200 μL in each well. The positive control was CCCP at 50 µM. Plates were incubated for 48 h at 30 °C with gentle shaking at 100 rpm. After the incubation period, the medium was removed and the plate was washed with water to remove unattached cells. A total of 200 μL CV (0.1% [v/v]) was added to each wells and incubated for 15 min at room temperature. CV was discarded from the wells and the plate was washed with water again. Then, 200 μL of 70% ethanol was added to each well and the biofilm formation was determined by measuring the OD at 600 nm using a Multiscan EX ELISA plate reader (Thermo Labsystems, Cheshire, WA, USA). The antibiofilm effect of the compounds was expressed as the percentage (%) decrease in biofilm formation.

S. aureus 272123 = test: Real-time ethidium bromide accumulation assay (efflux pump inhibition); conditions: minute 60
E. faecalis ATCC 29212 = test: MIC determination, broth microdilution; type: cell-based; conditions: Enterococcus faecalis
From the text: (§3) Both reference and resistant strains used in this work were employed by our group for the screening of different families of compounds, such as xanthones and thioxanthones.

S. aureus MRSA 272123 = test: MIC determination, broth microdilution; type: cell-based; conditions: Staphylococcus aureus
From the text: as §3

S. aureus 66/1 (MRSA) = test: MIC determination, broth microdilution; type: cell-based; conditions: Staphylococcus aureus
From the text: as §3

E. faecalis PFi/2 = test: MIC determination, broth microdilution; type: cell-based; conditions: Enterococcus faecalis
From the text: as §3

S. aureus ATCC 29213 = test: MIC determination, broth microdilution; type: cell-based; conditions: Staphylococcus aureus
From the text: as §3

E. faecalis B3/101 (VRE) = test: MIC determination, broth microdilution; type: cell-based; conditions: Enterococcus faecalis
From the text: as §3

E. faecalis PSi/107 = test: MIC determination, broth microdilution; type: cell-based; conditions: Enterococcus faecalis
From the text: as §3

MRSA 272123 = test: Biofilm formation, crystal violet method; type: cell-based, Staphylococcus aureus
Method: as §1, §2

[5] = ATCC29212, value in parentheses
[6] = ATCC29213, value in parentheses

For COc1cccc2c1C(=O)c1c(O)c3c(c(O)c1C2=O)C[C@@](O)(C(=O)CO)C[C@@H]3O[C@H]1C[C@H](N)[C@H](O)[C@H](C)O1 [DOXO, Doxorubicin, reference compound], the IC50 [1] was 3.72 ± 0.15 µM.
In the case of N#CC(C#N)=NNc1cccc(Cl)c1 [CCCP, carbonyl cyanide m-chlorophenyl hydrazone, reference compound], the “RFI ± SD” value (E. coli AG100A; compound at 50 μM) is reported as 1.13 ± 0.02 and the “RFI ± SD” value (E. coli AG100; compound at 50 μM) is reported as 1.56 ± 0.01.
For CN[C@H](CC(C)C)C(=O)N[C@H]1C(=O)N[C@@H](CC(N)=O)C(=O)N[C@H]2C(=O)N[C@H]3C(=O)N[C@H](C(=O)N[C@H](C(=O)O)c4cc(O)cc(O)c4-c4cc3ccc4O)[C@H](O)c3ccc(c(Cl)c3)Oc3cc2cc(c3O[C@@H]2O[C@H](CO)[C@@H](O)[C@H](O)[C@H]2O[C@H]2C[C@](C)(N)[C@H](O)[C@H](C)O2)Oc2ccc(cc2Cl)[C@H]1O [vancomycin, reference compound], the MIC (Enterococcus faecalis) is given as 1024 µg/mL (≈ 707 µM) and the MIC (E. faecalis B3/101) is given as 516 µg/mL.
For CC(C)C[C@@H]1NC(=O)[C@H](Cc2c[nH]c3c(Cl)cccc23)n2c1nc1c(Cl)cc(Cl)cc1c2=O [Compound 12d, (1S,4S)-8,10-dichloro-4-((7-chloro-1H-indol-3-yl)methyl)-1-isobutyl-1,2-dihydro-6H-pyrazino[2,1-b]quinazoline-3,6(4H)-dione], the “RFI ± SD” value (E. coli AG100A; compound at 100 μM) was 0.23 ± 0.05, the MIC [2] was 16 to 32 µM (≈ 8.06 to 16.1 µg/mL) and the IC50 [1] was 47.2 ± 1.55 µM. The MIC [3] was 64 µM (≈ 32.2 µg/mL), the “antibiofilm capacity (in words)” value [4] was “did not show any relevant activity” and the “RFI ± SD” value (S. aureus 272123; compound at 12.5 μM) was 0.34 ± 0.01. The “RFI ± SD” value (E. coli AG100; compound at 100 μM) was 0.32 ± 0.10, the MIC (E. faecalis ATCC 29212; ATCC29212) was 64 µM and the MIC (E. faecalis ATCC 29212; [5]) was 32 µg/mL. For the same compound, the MIC (S. aureus MRSA 272123) was 25 µM and 12.6 µg/mL, the MIC (S. aureus 66/1 (MRSA)) was 16 µM and 8 µg/mL and the MIC (E. faecalis PFi/2) was greater than 100 µM. The MIC (S. aureus ATCC 29213; ATCC29213) was 32 µM, the MIC (S. aureus ATCC 29213; [6]) was 16 µg/mL and the MIC (E. faecalis B3/101 (VRE)) was 64 µM and 32 µg/mL. For the same compound, the MIC (E. faecalis PSi/107) was greater than 100 µM.
In the case of CC(C)C[C@@H]1NC(=O)[C@@H](Cc2c[nH]c3ccccc23)n2c1nc1ccc(I)cc1c2=O [Compound 13a], the “decrease in biofilm formation” value (MRSA 272123) is reported as 91%, the “RFI ± SD” value (E. coli AG100A; compound at 50 μM) is reported as 0.48 ± 0.58 and the “RFI ± SD” value (S. aureus 272123; compound at 50 μM) is reported as 2.39 ± 0.09. For the same compound, the “RFI ± SD” value (E. coli AG100; compound at 50 μM) was 0.38 ± 0.01 and the MIC (S. aureus MRSA 272123) was greater than 100 µM.
With CC(C)C[C@@H]1NC(=O)[C@H](Cc2c[nH]c3cc(F)ccc23)n2c1nc1c(Cl)cc(Cl)cc1c2=O [Compound 12c] the “RFI ± SD” value (E. coli AG100A; compound at 100 μM) was 4.40 ± 1.78, the IC50 [1] was 46.1 ± 0.66 µM and the “antibiofilm capacity (in words)” value [4] was “did not show any relevant activity”. The “RFI ± SD” value (S. aureus 272123; compound at 6.25 μM (MIC/2)) was 0.49 ± 0.01, the “RFI ± SD” value (E. coli AG100; compound at 50 μM) was 0.24 ± 0.16 and the “RFI ± SD” value (E. coli AG100; compound at 100 μM) was 3.60 ± 0.01. The MIC (E. faecalis ATCC 29212; ATCC29212) was 33 to 66 µM, the MIC (E. faecalis ATCC 29212; [5]) was 16 to 32 µg/mL and the MIC (S. aureus MRSA 272123) was 12.5 µM and 6.1 µg/mL. For the same compound, the MIC (S. aureus 66/1 (MRSA)) was 33 µM and 16 µg/mL, the MIC (E. faecalis PFi/2) was greater than 100 µM and the MIC (S. aureus ATCC 29213; ATCC29213) was 33 µM. For the same compound, the MIC (S. aureus ATCC 29213; [6]) was 16 µg/mL, the MIC (E. faecalis B3/101 (VRE)) was 33 µM and 16 µg/mL and the MIC (E. faecalis PSi/107) was greater than 100 µM.
For Cc1ccc2nc3n(c(=O)c2c1)[C@H](Cc1c[nH]c2ccccc12)C(=O)N[C@H]3C(C)C [Compound 13c], the “RFI ± SD” value (E. coli AG100A; compound at 50 μM) was 0.13 ± 0.05, the “RFI ± SD” value (S. aureus 272123; compound at 50 μM) was 0.94 ± 0.04 and the “RFI ± SD” value (E. coli AG100; compound at 50 μM) was 0.17 ± 0.02. The MIC (S. aureus MRSA 272123) was 100 µM and 40 µg/mL.
For CC(C)C[C@@H]1NC(=O)[C@@H](Cc2c[nH]c3ccccc23)n2c1nc1ccc(Br)cc1c2=O [Compound 13b], the “RFI ± SD” value (E. coli AG100A; compound at 50 μM) was 0.12 ± 0.05, the “RFI ± SD” value (S. aureus 272123; compound at 50 μM) was 1.53 ± 0.02 and the “RFI ± SD” value (E. coli AG100; compound at 50 μM) was 0.52 ± 0.18. The MIC (S. aureus MRSA 272123) was greater than 100 µM.
